The results in this text go back to patent US9216973B2, “Insecticidal compounds” (Syngenta Participations AG, priority 2008, dated 2015).

The subject of series [1] is Heliothis virescens (Tobacco budworm). The experiment in a line: Heliothis virescens egg test on artificial diet. In kind it is in vivo. The note with it: 96 h, read-out: control of Heliothis virescens. On the procedure: (§1) This Example illustrates the insecticidal and acaricidal properties of compounds of formula (I). The tests were performed as follows:
(§2) Cotton leaf discs were placed on agar in a 24-well microtiter plate and sprayed with test solutions at an application rate of 200 ppm. After drying, the leaf discs were infested with 5 L1 larvae. The samples were checked for mortality, feeding behavior, and growth regulation 3 days after treatment (DAT). The following compound gave at least 80% control of Spodoptera littoralis: A1, A2, A5, A6, A7, A8, A10, A11, A12, A13, A14, A15, A16, A17, A18, A19, A21, A22, A23, A24, A25, A30, A31, A32, A33, A34, A35, A39, A40, A41 A42, A43, A44, A45, A46, A47, A48, A49, A50, A51, A53, A54, A55, A59, A60, A61, A62. Heliothis virescens (Tobacco budworm): Eggs (0-24 h old) were placed in 24-well microtiter plate on artificial diet and treated with test solutions at an application rate of 200 ppm (concentration in well 18 ppm) by pipetting. After an incubation period of 4 days, samples were checked for egg mortality, larval mortality, and growth regulation. The following compound gave at least 80% control of Heliothis virescens: A1, A2, A3, A4, A5, A6, A7, A8, A10, A11, A12, A13, A14, A15, A16, A18, A19, A21, A22, A24, A25, A30, A31, A32, A33, A34, A35, A37, A38, A39, A40, A42, A43, A44, A45, A46, A47, A48, A49, A50, A51, A55, AA57, A58, A59, A60, A61, A62. Plutella xylostella (Diamond back moth): 24-well microtiter plate (MTP) with artificial diet was treated with test solutions at an application rate of 200 ppm (concentration in well 18 ppm) by pipetting. After drying, the MTP's were infested with L2 larvae (7-12 per well). After an incubation period of 6 days, samples were checked for larval mortality and growth regulation. The following compound gave at least 80% control of Plutella xylostella: A1, A2, A5, A6, A7, A8, A9, A10, A11, A12, A13, A14, A15, A16, A17, A18, A19, A20, A21, A22, A24, A25, A30, A31, A32, A33, A34, A35, A37, A38, A39, A40, A42, A43, A44, A45, A46, A47, A48, A49, A50, A51, A52, A53, A54, A55, A57, A58, A59, A60, A61, A62, B3. Diabrotica balteata (Corn root worm): A 24-well microtiter plate (MTP) with artificial diet was treated with test solutions at an application rate of 200 ppm (concentration in well 18 ppm) by pipetting. After drying, the MTP's were infested with L2 larvae (6-10 per well). After an incubation period of 5 days, samples were checked for larval mortality and growth regulation. The following compound gave at least 80% control of Diabrotica balteata: A1, A2, A5, A6, A7, A10, A11, A12, A13, A14, A15, A16, A17, A18, A19, A21, A22, A24, A25, A30, A31, A32, A33, A34, A35, A38, A39, A40, A42, A43, A44, A45, A46, A47, A48, A49, A50, A59, A60, A61, A62. Thrips tabaci (Onion thrips): Sunflower leaf discs were placed on agar in a 24-well microtiter plate and sprayed with test solutions at an application rate of 200 ppm. After drying, the leaf discs were infested with an […] population of mixed ages. After an incubation period of 7 days, samples were checked for mortality. The following compounds gave at least 80% control of Thrips tabaci: A1, A2, A5, A6, A7, A8, A10, A12, A13, A14, A15, A16, A17, A18, A19, A21, A24, A25, A30, A31, A32, A33, A34, A35, A39, A42, A43, A44, A45, A46, A47, A48, A49, A50, A51, A53, A54, A57, A58, A59, A60, A61, A62. Tetranychus urticae (Two-spotted spider mite): Bean leaf discs on agar in 24-well microtiter plates were sprayed with test solutions at an application rate of 200 ppm. After drying, the leaf discs are infested with mite populations of mixed ages. 8 days later, discs are checked for egg mortality, larval mortality, and adult mortality. The following compound gave at least 80% control of Tetranychus urticae: A1, A2, A4, A5, A6, A7, A8, A10, A11, A12, A13, A14, A15, A16, A17, A18, A19, A20, A21, A22, A30, A31, A32, A33, A34, A35, A39, A40, A41, A42, A43, A44, A45, A46, A47, A48, A49, A50, A51, A53, A54, A55, A57, A59, A60, A61, A62.

In series [2] the test system is Tetranychus urticae (Two-spotted spider mite). In words: Tetranychus urticae bean leaf disc spray test. In kind it is in vivo. Particulars: foliar, 192 h, read-out: control of Tetranychus urticae. On the procedure:
as §1, §2

The test system of series [3] is Plutella xylostella (Diamond back moth). The experiment in a line: Plutella xylostella larvae test on artificial diet. Format: in vivo. The note with it: 144 h, 200 ppm (concentration in well 18 ppm), artificial diet, L2 larvae, larval mortality and growth regulation after 6 days. On the procedure:
as §1, §2

The test system of series [4] is Diabrotica balteata (Corn root worm). In words: Diabrotica balteata larvae test on artificial diet. In kind it is in vivo. Particulars: 120 h, 200 ppm (concentration in well 18 ppm), artificial diet, L2 larvae, larval mortality and growth regulation after 5 days. On the procedure:
as §1, §2

The subject of series [5] is Spodoptera littoralis (Egyptian cotton leafworm). In words: Spodoptera littoralis cotton leaf disc spray test. Format: in vivo. Particulars: foliar, 72 h, 200 ppm spray on cotton leaf discs, L1 larvae, mortality, feeding behavior, growth regulation 3 days after treatment. On the procedure:
as §1
Spodoptera littoralis (Egyptian cotton leafworm):
as §2, with “The following compound gave at least 80% control of Tetranychus urticae: A1, A2, A4, A5, A6, A7, A8, A10, A11, A12, A13, A14, A15, A16, A17, A18, A19, A20, A21, A22, A30, A31, A32, A33, A34, A35, A39, A40, A41, A42, A43, A44, A45, A46, A47, A48, A49, A50, A51, A53, A54, A55, A57, A59, A60, A61, A62.” left out

For series [6], the system named is Thrips tabaci (Onion thrips). In words: Thrips tabaci sunflower leaf disc spray test. Format: in vivo. The note with it: foliar, 168 h, 200 ppm spray on sunflower leaf discs, population of mixed ages, mortality after 7 days. On the procedure:
as §1, §2

Where [7] appears, read: 200 ppm spray on bean leaf discs, mite populations of mixed ages, egg, larval and adult mortality 8 days later.
Where [8] appears, read: 200 ppm (concentration in well 18 ppm), eggs 0-24 h old on artificial diet, egg mortality, larval mortality, growth regulation after 4 days.

The structures appear in SMILES notation. Where two headings read alike, the source gives them in different places.

On to `Cc1cc(N2CC2(c2cc(Cl)cc(Cl)c2)C(F)(F)F)ccc1C(=O)NC1(C)CSC1` (stereo not drawn) [A3], for which the pest or weed control at 200 ppm in series [1] was at least 80%. As to `Cc1cc(N2CC2(c2cc(Cl)cc(Cl)c2)C(F)(F)F)ccc1C(=O)NC1CSC1` (stereo not drawn) [A4], the pest or weed control at 200 ppm in series [2] and in series [1] was at least 80% each time.

As to `Cc1cc(N2CC(c3cc(Cl)cc(Cl)c3)(C(F)(F)F)OC2=O)ccc1C(=O)NC1(C)CSC1` (stereo not drawn) [A9], the pest or weed control at 200 ppm in series [3] was at least 80%. Turning to `Cc1cc(C2CC(c3cc(Cl)cc(Cl)c3)(C(F)(F)F)ON2C)ccc1C(=O)NC1(C)CSC1` (stereo not drawn) [A20], the pest or weed control at 200 ppm in series [2] (setting [7]) and in series [3] was at least 80% each time.

With `O=C(NC1C[S+]([O-])C1)c1ccc(C2=NOC(c3cc(Cl)cc(Cl)c3)(C(F)(F)F)C2)c2nsnc12` (stereo not drawn) [A24], the pest or weed control at 200 ppm in series [3] was at least 80%.

Regarding `O=C(NC1CSC1)c1ccc(C2=NOC(c3cc(Cl)cc(Cl)c3)(C(F)(F)F)C2)c2nsnc12` (stereo not drawn) [A25], in series [3], the pest or weed control at 200 ppm is at least 80%. Regarding `C/C=C1\C(c2ccc(C(=O)NC3CSC3)c(C)c2)=NOC1(c1cc(Cl)cc(Cl)c1)C(F)(F)F` (stereo not drawn) [A30], the pest or weed control at 200 ppm in series [4], in series [3] and in series [1] (setting [8]) was at least 80% throughout.

Turning to `O=C(NC1C[S+]([O-])C1)c1cccc2c(C3=NOC(c4cc(Cl)cc(Cl)c4)(C(F)(F)F)C3)cccc12` (stereo not drawn) [A37], the pest or weed control at 200 ppm in series [3] and in series [1] (setting [8]) was at least 80% each time. With `O=C(NC1CSC1)c1cccc2c(C3=NOC(c4cc(Cl)cc(Cl)c4)(C(F)(F)F)C3)cccc12` (stereo not drawn) [A38], the pest or weed control at 200 ppm in series [4], in series [3] and in series [1] (setting [8]) was at least 80% each time. In series [5], `Cc1cc(C2=NOC(c3cc(Cl)cc(Cl)c3)(C(F)(F)F)C2S(C)(=O)=O)ccc1C(=O)NC1CSC1` (stereo not drawn) [A41] returned a pest or weed control at 200 ppm of at least 80%.

`Cc1cc(C2=NOC(c3cc(Cl)cc(Cl)c3)(C(F)(F)F)C2O)ccc1C(=O)NC1(C)CSC1` (stereo not drawn) [A52] displayed a pest or weed control at 200 ppm in series [3] of at least 80%. Turning to `Cc1cc(C2=NOC(c3cc(Cl)cc(Cl)c3)(C(F)(F)F)/C2=N/O)ccc1C(=O)NC1C[S+]([O-])C1` (stereo not drawn) [A57], the pest or weed control at 200 ppm in series [2] (setting [7]), in series [3], in series [6] and in series [1] (setting [8]) was at least 80% each time. With `Cc1nn(C2=NOC(c3cc(Cl)cc(Cl)c3)(C(F)(F)F)C2)cc1C(=O)NC1CSC1` (stereo not drawn) [B1], the melting point (in general, the temperature of the solid-liquid transition) fell in the range of 177 to 180 °C. With `O=C(NC1CSC1)c1ccn(C2=NOC(c3cc(Cl)cc(Cl)c3)(C(F)(F)F)C2)n1` (stereo not drawn) [B3], the pest or weed control at 200 ppm in series [3] was at least 80%.
